One data set addresses T1, ROCK-1 (Homo sapiens, UniProt Q13464).
T1 construct: purchased Promega
Description: ADP-Glo kinase assay, ROCK-1 inhibition. The format is biochemical. Background: ADP-Glo first removes unused ATP, then detects ADP through luciferase.

A short description of data set [1]: Cytotoxicity, PrestoBlue cell viability assay in HT-22 cells. Format: cell-based, mouse. Conditions: mouse, HT-22 hippocampal neuronal cells, 24 h. On the procedure: (§1) We assessed their cytotoxic effects at five concentrations (0.1, 1, 10, 50, and 100 µM) in HT-22 (mouse hippocampal neuronal cells) and BV-2 (mouse microglial cells) cell lines using a fluorometric assay with PrestoBlue™ cell viability reagent (Table 4, Table S2 in the SI).
(§2) Mouse microglial cells (BV-2) were a generous gift from Professor Bozena Kaminska-Kaczmarek of the Laboratory of Molecular Neurobiology, Neurobiology Center, Nencki Institute of Experimental Biology, Polish Academy of Sciences, Warsaw, Poland. Cells were cultured in Dulbecco’s modified Eagle’s Medium-high glucose (DMEM, Glutamx Thermo Fisher, Waltham, MA, USA) supplemented with 10% inactivated fetal bovine serum (Thermo Fisher), 100 IU/mL penicillin (Merck), and 100 µg/mL streptomycin (Merck). Cells were cultured in flasks (area 175 cm^2, Nunc) and incubated at 37 °C, 5% CO2. To evaluate the level of NO, IL-6, and TNF-α and the effectiveness of the compounds tested, BV-2 microglia cells were cultured in 96-well culture plates (5 × 10^4 cells per well, Falcon). For the measurement of cell viability and cell membrane damage, cells were placed in 96-well culture plates (2 × 10^4 cells per well, Falcon). Before the tests, cells were grown for 24 h in the incubator (37 °C, 5% CO2). Mouse Hippocampal Neuronal Cell Line (HT-22) was a generous gift from Dr Bartosz Pomierny of the Department of Biochemical Toxicology, Jagiellonian University Medical College, Krakow, Poland. Cells were cultured in Dulbecco’s modified Eagle’s Medium-high glucose (DMEM, Glutamx Thermo Fisher) supplemented with 10% inactivated fetal bovine serum (Thermo Fisher), 100 IU/mL penicillin (Merck), and 100 µg/mL streptomycin (Merck). Cells were cultured in flasks (area 175 cm^2, Nunc) and incubated at 37 °C, 5% CO2. For the measurement of cell viability and neuroprotective effects against okadaic acid, cells were placed in 96-well culture plates (2 × 10^4 cells per well, Falcon). Before the tests, cells were grown for 24 h in the incubator (37 °C, 5% CO2).
(§3) Cell viability was evaluated using the PrestoBlue reagent (Thermo Fisher), according to the manufacturer’s procedures. Following 24 h of incubation with the tested molecule, PrestoBlue reagent was added to a microplate well in an amount equal to one-tenth of the remaining medium volume. The resulting mixture was incubated for 15 min at 37 °C, and the fluorescence intensity (EX 530; EM 580 nm) was measured using the plate reader POLARstar Omega, (BMG Labtech, Ortenberg, Germany). The results (viability values) are provided as a percentage of live cells with respect to DMSO (control sample).
(§4) Cytotoxic effects of selected inhibitors in HT-22 mouse hippocampal neuronal cells and BV-2 mouse microglial cells
(§5) Table S2. Cytotoxic effects of selected inhibitors in HT-22 mouse hippocampal neuronal cells and BV-2 mouse microglial cells. neurotoxicity in HT-22 cellsa immunotoxicity in BV-2 cellsa […]
(§6) a % of cell viability at the given concentration of tested compound; mean value ± standard deviation (SD) of triplicates; b half maximal inhibitory concentration of the tested compound; mean value ± standard error of the mean (SEM) of triplicates; c data obtained in log C of 39 of -8.5; -7.5; -6.5; -5.5; -5, respectively; d data obtained in log C of 49 of -7.5; -6.5; -5.5; -4.5; -4. respectively; nt, not tested.

Data set [2] has as its system HT-22 (mouse hippocampal neuronal cells). The data set is described as above. The format is cell-based. The procedure:
as §1, §2, §3, §4, §5, §6

The results in this text go back to paper PMC11173485, “Connecting GSK-3β Inhibitory Activity with IKK-β or ROCK-1 Inhibition to Target Tau Aggregation and Neuroinflammation in Alzheimer’s Disease—Discovery, In Vitro and In Cellulo Activity of Thiazole-Based Inhibitors” (Molecules, 2024).

Where two headings read alike, the source gives them in different places.

As a reminder, the IC50 is the midpoint of a concentration-inhibition curve. By viability is commonly meant a read-out of living cells in per cent, often relative to untreated cells.

T1 sequence (Q13464 whole entry): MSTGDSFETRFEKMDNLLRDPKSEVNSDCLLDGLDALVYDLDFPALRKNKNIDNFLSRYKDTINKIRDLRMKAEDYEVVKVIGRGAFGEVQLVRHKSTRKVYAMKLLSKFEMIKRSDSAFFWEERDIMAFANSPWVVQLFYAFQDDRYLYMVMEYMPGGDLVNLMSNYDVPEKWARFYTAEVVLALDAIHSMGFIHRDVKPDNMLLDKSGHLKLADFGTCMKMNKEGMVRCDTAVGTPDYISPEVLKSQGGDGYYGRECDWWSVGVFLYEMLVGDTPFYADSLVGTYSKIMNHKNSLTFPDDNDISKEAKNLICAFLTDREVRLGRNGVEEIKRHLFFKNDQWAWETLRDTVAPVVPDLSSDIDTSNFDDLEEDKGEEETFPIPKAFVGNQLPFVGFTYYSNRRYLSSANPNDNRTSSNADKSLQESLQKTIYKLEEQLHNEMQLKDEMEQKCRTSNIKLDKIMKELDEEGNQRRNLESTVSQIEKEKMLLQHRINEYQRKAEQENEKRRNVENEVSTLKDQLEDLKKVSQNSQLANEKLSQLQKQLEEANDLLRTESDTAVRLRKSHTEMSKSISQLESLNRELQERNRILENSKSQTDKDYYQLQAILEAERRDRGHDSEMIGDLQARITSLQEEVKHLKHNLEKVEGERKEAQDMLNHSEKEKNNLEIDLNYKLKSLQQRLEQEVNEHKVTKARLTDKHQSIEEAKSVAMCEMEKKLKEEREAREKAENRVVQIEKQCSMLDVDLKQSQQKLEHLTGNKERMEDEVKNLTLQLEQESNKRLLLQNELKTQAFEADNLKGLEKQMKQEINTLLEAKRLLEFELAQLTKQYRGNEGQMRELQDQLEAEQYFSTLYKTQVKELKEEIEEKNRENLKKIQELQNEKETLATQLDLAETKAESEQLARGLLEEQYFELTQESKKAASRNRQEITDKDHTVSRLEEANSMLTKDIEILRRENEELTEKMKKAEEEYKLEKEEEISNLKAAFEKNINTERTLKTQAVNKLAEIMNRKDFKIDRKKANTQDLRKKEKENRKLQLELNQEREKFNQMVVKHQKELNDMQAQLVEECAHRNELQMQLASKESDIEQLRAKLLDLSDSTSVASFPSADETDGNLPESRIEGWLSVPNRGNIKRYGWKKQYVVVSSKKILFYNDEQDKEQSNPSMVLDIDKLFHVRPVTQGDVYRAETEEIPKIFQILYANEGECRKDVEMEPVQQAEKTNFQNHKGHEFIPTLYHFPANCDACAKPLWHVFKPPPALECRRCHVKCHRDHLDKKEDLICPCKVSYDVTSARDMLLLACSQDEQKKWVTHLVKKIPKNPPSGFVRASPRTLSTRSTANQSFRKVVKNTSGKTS

With `O=C1NC2(CCOC2)Nc2cc(-c3ccnc(NC(=O)C4CC4)c3)sc21` (stereo not shown) [Compound 62, N-(4-(4′-Oxo-3′,4,4′,5-tetrahydro-1′H,2H-spiro[furan-3,2′-thieno [3,2-d]pyrimidin]-6′-yl)pyridin-2-yl)cyclopropanecarboxamide], the IC50 at ROCK-1 was 2300 nM; against ROCK-1 (mean ± SEM, ATP 5 µM) it was 2310 ± 131 nM. The viability at 24 h, 1 µM in data set [1] (1 µM (log C -6), read-out: neurotoxicity in HT-22 cells, % of cell viability) was determined as 108%. In addition, the viability at 24 h, 10 µM in data set [1] (10 µM (log C -5), read-out: neurotoxicity in HT-22 cells, % of cell viability) was found to be 105%. Further, the viability at 24 h, 50 µM in data set [1] (50 µM (log C -4.3), read-out: neurotoxicity in HT-22 cells, % of cell viability) came to 35%. Also, the viability at 24 h, 100 µM in data set [1] (100 µM (log C -4), read-out: neurotoxicity in HT-22 cells, % of cell viability) is 29%. The IC50 at 24 h in data set [1] (PrestoBlue, mean ± SEM, read-out: Cytotoxicity in HT-22 Cells (IC50 x¯ ± SEM µM)) was determined as 58.3 ± 10 µM. In data set [1] (read-out: neurotoxicity in HT-22 cells, % of cell viability), the viability at 24 h, 0.1 µM is 106%. Further, in data set [2] (0.1, 1, 10, 50, and 100 µM), the “effect on cell viability in HT-22 cells (in words)” value is listed as “decreased cells’ viability”. Further, in data set [2] (up to 10 µM), the “effect on viability of HT-22 cells at concentrations up to 10 µM (in words)” value is listed as “did not decrease the viability of the cells”.
